# From patent publication US10202604B2, “Methods of using microRNA-141” (Stemirna Therapeutics Co., Ltd., priority 2016, dated 2019)
# “And” between values parts separate entries of the source, which are not always exact repeats. Equal entries are not always repeated.
# Columns and labels:
# Du145 cells = assay: Whole-genome RNA-Seq; type: cell-based, human
# Protocol: (§1) Du145 and LAPC9 cells were transfected with 30 nM of miR-141 or negative control oligos for 48 h. Total RNA was purified using RNeasy mini kit (Qiagen, Hilden, Germany). The overexpression of miR-141 was validated by qPCR. 100 ng of total RNA samples was then converted to cDNA using a NuGEN Ovation RNA-Seq System v2 according to the manufacturer's protocol (NuGEN, San Carlos, Calif.). NuGEN-amplified double-stranded cDNAs were fragmented into ˜180 base pair (bp) using a Covaris system (Covaris, Woburn, Mass.). Fragmented cDNAs were run on a SPRI-TE library construction system (Beckman Coulter, Fullerton, Calif.), and during the adaptor ligation step, uniquely indexed NEXTflex adapters (Bioo Scientific, Austin, Tex.) were used for each of the samples to allow for multiplexing. Adapter-ligated libraries were enriched by PCR using a KAPA library amplification kit (KAPA Biosystems, Wilmington, Mass.) (1 cycle at 98° C. for 45 seconds; 7 cycles at 98° C. for 15 seconds, 65° C. for 30 seconds, and 72° C. for 30 seconds; 1 cycle at 72° C. for 1 minute), and purified with AMPureXP beads (Beckman Coulter, Pasadena, Calif.). The purified libraries were quantified using a KAPA library quantification kit. The libraries were loaded on cBot (Illumina, San Diego, Calif.) at final concentration of […] to perform cluster generation, followed by 2×76 bp sequencing on HiSeq 2000 (Illumina, San Diego, Calif.).
# (§2) Sequencing reads were mapped to reference human genome sequence ([…] [hg19] assembly by TopHat (Version 2.0.6). The number of fragments in each known gene from RefSeq database (downloaded from UCSC Genome Browser on Mar. 9, 2012) was enumerated using htseq-count from HTSeq package (version 0.5.4p9). Genes with less than 10 fragments in all the samples were removed before differential expression analysis. The differential expression between conditions was statistically assessed by R/Bioconductor package edgeR (version 3.0.8). Genes with FDR (false discovery rate) of ≤0.05 and >200 bp were called as differentially expressed.
# (§3) For Gene Ontology (GO) analysis, IPA (Ingenuity Pathway Analysis; Qiagen, Valencia, Calif.) and GSEA (Gene Set Enrichment Analysis; Broad Institute) were performed. The standard procedure was followed (www.broadinstitute.org/gsea/doc/GSEAUserGuideFrame.html) as described by GSEA user guide and used curated gene set C2 of the Molecular Signature Database (MSigDB) version 4.0 to compute overlaps between gene set and gene sets in MSigDB. Some of the datasets presented in the text are annotated here.
# (§4) The authors' in-house scripts (12) was utilized for sequence alignment and peak calling. The miR-200a CLIP-Seq results containing the binding information were further extracted and merged with Du145 or LAPC9 RNA-Seq data by gene symbol.
# LAPC9 cells = assay: Whole-genome RNA-Seq; type: cell-based, human
# Protocol: as §1, §2, §3, §4
# [1] = merged with miR-200a CLIP-Seq data
substance,measurement,setting,value
"miR-141: miR-141 mirVana mimics (Life Technologies); microRNA-141 oligonucleotide may have SEQ ID NO: 1; in some experiments over-expressed by lentiviral vectors (UAACACUGUCUGGUAAAGAUGG; listed as RNA, further chemistry not given here) [miR-141 mirVana mimics (Life Technologies); in some experiments over-expressed by lentiviral vectors]","TGFB2, ZEB1, MAP2K4, and VIM expression",Du145 cells,downregulated
same,"ZEB2, TWIST2, and SANI2 expression",Du145 cells,inconsistent changes
same,"epithelial markers including E-Cadherin, Claudin family members and cytokeratins (KRT)",Du145 cells,strongly induced
same,down-regulated genes,Du145 cells; FDR<0.05,949
same,up-regulated genes,Du145 cells; FDR<0.05,"1,304"
same,transcripts having binding sites to miR-200a/miR-141,Du145 cells; RNA-Seq DEGs merged with miR-200a CLIP-Seq data,532
same,down-regulated transcripts having binding sites to miR-200a/miR-141,Du145 cells; [1],263
same,upregulated transcripts having binding sites to miR-200a/miR-141,Du145 cells; [1],269
same,"TGFB2, ZEB1, MAP2K4, VIM, NYH10, FN1 and many other mesenchymal genes",LAPC9 cells,downregulated
same,"epithelial markers including E-Cadherin, Claudin members and KRTs",LAPC9 cells,prominently upregulated
same,down-regulated genes,LAPC9 cells; FDR<0.05,459
same,up-regulated genes,LAPC9 cells; FDR<0.05,265
same,putative direct targets of miR-141 (genes),LAPC9 cells; RNA-Seq merged with miR-200a CLIP-Seq data,157 and ~150
